Target: NEK6 (human) (UniProt Q9HC98)
Assay: radiometric filter-binding kinase assay, Kinase HotSpot
Details: compound 0.5 µM; ATP 10 µM

NEK6 (human), sequence (Q9HC98 whole entry, looked up): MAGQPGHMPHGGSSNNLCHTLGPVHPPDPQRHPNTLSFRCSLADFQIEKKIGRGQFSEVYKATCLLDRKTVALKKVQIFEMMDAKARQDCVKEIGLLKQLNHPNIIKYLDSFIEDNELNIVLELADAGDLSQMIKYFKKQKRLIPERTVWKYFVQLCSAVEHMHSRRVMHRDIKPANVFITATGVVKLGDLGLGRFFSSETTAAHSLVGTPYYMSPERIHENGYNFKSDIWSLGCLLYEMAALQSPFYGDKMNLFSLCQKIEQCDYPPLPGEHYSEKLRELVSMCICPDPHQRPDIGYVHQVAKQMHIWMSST

SMILES | residual activity
O=c1[nH]c2ccccc2n1C1CCN(Cc2ccc(-c3nc4cc5[nH]cnc5cc4nc3-c3ccccc3)cc2)CC1 | 98.2%
COc1cc2c(cc1OC)-c1[nH]nc(Nc3cccc(F)c3)c1C2 | 105%
Cn1cc(/C=C2\C(=O)Nc3ccc(S(N)(=O)=O)cc32)c2ccccc21 | 98.6%
COc1cccc(-c2cc(=O)c3ccccc3o2)c1N | 102%

Target: GRK6 (human) (UniProt P43250)
Assay: as above
Details: compound 0.5 µM; ATP 10 µM

GRK6 (human), sequence (P43250 whole entry, looked up): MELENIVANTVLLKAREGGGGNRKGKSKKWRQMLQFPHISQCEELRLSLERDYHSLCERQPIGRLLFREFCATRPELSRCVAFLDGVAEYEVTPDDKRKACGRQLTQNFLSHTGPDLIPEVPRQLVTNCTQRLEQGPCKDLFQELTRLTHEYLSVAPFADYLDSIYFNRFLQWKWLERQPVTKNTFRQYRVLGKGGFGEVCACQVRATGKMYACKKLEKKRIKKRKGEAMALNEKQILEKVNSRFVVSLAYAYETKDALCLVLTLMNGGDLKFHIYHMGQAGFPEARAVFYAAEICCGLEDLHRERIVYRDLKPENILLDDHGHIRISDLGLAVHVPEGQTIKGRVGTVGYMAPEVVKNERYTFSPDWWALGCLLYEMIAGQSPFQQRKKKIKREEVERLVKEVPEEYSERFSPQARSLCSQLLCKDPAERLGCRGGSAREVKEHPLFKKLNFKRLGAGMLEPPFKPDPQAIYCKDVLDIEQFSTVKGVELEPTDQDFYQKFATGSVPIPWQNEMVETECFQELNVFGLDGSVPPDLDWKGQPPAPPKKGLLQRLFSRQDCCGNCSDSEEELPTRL

SMILES | residual activity
O=c1[nH]c2ccccc2n1C1CCN(Cc2ccc(-c3nc4cc5[nH]cnc5cc4nc3-c3ccccc3)cc2)CC1 | 88%
COc1cc2c(cc1OC)-c1[nH]nc(Nc3cccc(F)c3)c1C2 | 89.4%
Cn1cc(/C=C2\C(=O)Nc3ccc(S(N)(=O)=O)cc32)c2ccccc21 | 47.2%
COc1cccc(-c2cc(=O)c3ccccc3o2)c1N | 90.7%

Target: MAP3K3 (human) (UniProt Q99759)
Assay: as above
Details: compound 0.5 µM; ATP 10 µM

MAP3K3 (human), sequence (Q99759 whole entry, looked up): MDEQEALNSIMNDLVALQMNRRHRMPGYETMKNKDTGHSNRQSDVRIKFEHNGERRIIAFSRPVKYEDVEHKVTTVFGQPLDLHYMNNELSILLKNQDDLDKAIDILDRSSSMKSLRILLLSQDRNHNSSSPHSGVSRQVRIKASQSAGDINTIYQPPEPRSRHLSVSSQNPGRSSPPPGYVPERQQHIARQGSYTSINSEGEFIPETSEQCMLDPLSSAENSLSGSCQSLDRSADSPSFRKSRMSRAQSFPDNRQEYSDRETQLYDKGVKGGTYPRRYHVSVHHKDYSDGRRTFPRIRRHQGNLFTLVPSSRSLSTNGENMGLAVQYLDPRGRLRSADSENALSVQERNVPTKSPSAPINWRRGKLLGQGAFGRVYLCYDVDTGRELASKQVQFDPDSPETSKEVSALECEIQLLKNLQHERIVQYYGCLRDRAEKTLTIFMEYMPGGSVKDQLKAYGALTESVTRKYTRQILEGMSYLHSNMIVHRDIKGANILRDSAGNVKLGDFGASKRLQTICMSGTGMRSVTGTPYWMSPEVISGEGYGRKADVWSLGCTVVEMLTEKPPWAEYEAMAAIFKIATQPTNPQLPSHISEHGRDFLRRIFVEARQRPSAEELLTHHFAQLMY

SMILES | residual activity
O=c1[nH]c2ccccc2n1C1CCN(Cc2ccc(-c3nc4cc5[nH]cnc5cc4nc3-c3ccccc3)cc2)CC1 | 101%
COc1cc2c(cc1OC)-c1[nH]nc(Nc3cccc(F)c3)c1C2 | 103%
Cn1cc(/C=C2\C(=O)Nc3ccc(S(N)(=O)=O)cc32)c2ccccc21 | 80.7%
COc1cccc(-c2cc(=O)c3ccccc3o2)c1N | 83%

Target: CDC42BPA (human) (UniProt Q5VT25)
Assay: as above
Details: compound 0.5 µM; ATP 10 µM

SMILES | residual activity
O=c1[nH]c2ccccc2n1C1CCN(Cc2ccc(-c3nc4cc5[nH]cnc5cc4nc3-c3ccccc3)cc2)CC1 | 105%
COc1cc2c(cc1OC)-c1[nH]nc(Nc3cccc(F)c3)c1C2 | 119%
Cn1cc(/C=C2\C(=O)Nc3ccc(S(N)(=O)=O)cc32)c2ccccc21 | 70.7%
COc1cccc(-c2cc(=O)c3ccccc3o2)c1N | 98.5%

Target: DAPK3 (human) (UniProt O43293)
Assay: as above
Details: compound 0.5 µM; ATP 10 µM

SMILES | residual activity
O=c1[nH]c2ccccc2n1C1CCN(Cc2ccc(-c3nc4cc5[nH]cnc5cc4nc3-c3ccccc3)cc2)CC1 | 106%
COc1cc2c(cc1OC)-c1[nH]nc(Nc3cccc(F)c3)c1C2 | 100%
Cn1cc(/C=C2\C(=O)Nc3ccc(S(N)(=O)=O)cc32)c2ccccc21 | 94.1%
COc1cccc(-c2cc(=O)c3ccccc3o2)c1N | 101%

Target: EPHA8 (human) (UniProt P29322)
Assay: as above
Details: compound 0.5 µM; ATP 10 µM

EPHA8 (human), sequence (P29322 whole entry, looked up): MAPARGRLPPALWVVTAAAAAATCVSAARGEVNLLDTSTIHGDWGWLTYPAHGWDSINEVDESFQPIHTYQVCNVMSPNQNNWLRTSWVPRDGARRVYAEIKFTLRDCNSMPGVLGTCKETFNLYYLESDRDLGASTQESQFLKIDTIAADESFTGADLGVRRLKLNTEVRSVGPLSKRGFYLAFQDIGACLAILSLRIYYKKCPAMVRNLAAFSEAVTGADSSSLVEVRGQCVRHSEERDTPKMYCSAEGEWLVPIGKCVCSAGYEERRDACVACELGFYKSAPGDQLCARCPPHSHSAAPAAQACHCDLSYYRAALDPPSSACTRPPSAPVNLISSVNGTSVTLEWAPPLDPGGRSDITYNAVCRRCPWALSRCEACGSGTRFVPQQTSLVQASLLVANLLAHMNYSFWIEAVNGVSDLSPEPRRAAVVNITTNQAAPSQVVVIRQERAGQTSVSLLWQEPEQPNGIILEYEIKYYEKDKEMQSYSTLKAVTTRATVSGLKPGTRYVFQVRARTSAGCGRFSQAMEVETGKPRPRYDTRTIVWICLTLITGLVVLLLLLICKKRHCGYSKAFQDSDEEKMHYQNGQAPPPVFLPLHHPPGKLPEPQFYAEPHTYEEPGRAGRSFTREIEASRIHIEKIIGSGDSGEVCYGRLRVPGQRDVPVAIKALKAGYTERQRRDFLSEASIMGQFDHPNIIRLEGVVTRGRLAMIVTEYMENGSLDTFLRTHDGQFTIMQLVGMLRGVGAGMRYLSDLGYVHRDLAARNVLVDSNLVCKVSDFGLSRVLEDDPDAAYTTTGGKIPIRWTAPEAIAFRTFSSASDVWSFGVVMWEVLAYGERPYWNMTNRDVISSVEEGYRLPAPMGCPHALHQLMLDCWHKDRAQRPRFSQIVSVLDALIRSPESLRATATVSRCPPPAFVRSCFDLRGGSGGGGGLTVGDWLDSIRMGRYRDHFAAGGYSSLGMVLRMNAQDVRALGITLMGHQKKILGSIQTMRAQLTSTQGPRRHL

SMILES | residual activity
O=c1[nH]c2ccccc2n1C1CCN(Cc2ccc(-c3nc4cc5[nH]cnc5cc4nc3-c3ccccc3)cc2)CC1 | 106%
COc1cc2c(cc1OC)-c1[nH]nc(Nc3cccc(F)c3)c1C2 | 94.2%
Cn1cc(/C=C2\C(=O)Nc3ccc(S(N)(=O)=O)cc32)c2ccccc21 | 83.4%
COc1cccc(-c2cc(=O)c3ccccc3o2)c1N | 96.3%

Target: CDK2 CCNE1 (human) (UniProt P24941+P24864)
Assay: as above
Details: compound 0.5 µM

CDK2 CCNE1 (human), sequence (P24864 whole entry, looked up, other chains not shown): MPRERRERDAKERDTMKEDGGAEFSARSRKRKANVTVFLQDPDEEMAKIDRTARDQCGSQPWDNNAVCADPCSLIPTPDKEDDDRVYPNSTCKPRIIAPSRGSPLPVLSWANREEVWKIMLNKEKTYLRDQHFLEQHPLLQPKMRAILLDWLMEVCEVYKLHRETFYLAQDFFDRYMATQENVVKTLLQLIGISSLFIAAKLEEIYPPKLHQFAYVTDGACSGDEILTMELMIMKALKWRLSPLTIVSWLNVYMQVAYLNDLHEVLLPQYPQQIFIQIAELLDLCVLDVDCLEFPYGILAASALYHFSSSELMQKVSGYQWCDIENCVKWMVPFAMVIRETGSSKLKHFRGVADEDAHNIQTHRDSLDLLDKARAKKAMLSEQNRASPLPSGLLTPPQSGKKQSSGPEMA

SMILES | residual activity
O=c1[nH]c2ccccc2n1C1CCN(Cc2ccc(-c3nc4cc5[nH]cnc5cc4nc3-c3ccccc3)cc2)CC1 | 95.6%

Same assay, conditions: compound 0.5 µM; ATP 10 µM

SMILES | residual activity
COc1cc2c(cc1OC)-c1[nH]nc(Nc3cccc(F)c3)c1C2 | 88.6%
Cn1cc(/C=C2\C(=O)Nc3ccc(S(N)(=O)=O)cc32)c2ccccc21 | 77.9%
COc1cccc(-c2cc(=O)c3ccccc3o2)c1N | 95.3%

Target: CDK7 CCNH MNAT1 (human) (UniProt P50613+P51948+P51946)
Assay: as above
Details: compound 0.5 µM

CDK7 CCNH MNAT1 (human), sequence (P50613 whole entry, looked up): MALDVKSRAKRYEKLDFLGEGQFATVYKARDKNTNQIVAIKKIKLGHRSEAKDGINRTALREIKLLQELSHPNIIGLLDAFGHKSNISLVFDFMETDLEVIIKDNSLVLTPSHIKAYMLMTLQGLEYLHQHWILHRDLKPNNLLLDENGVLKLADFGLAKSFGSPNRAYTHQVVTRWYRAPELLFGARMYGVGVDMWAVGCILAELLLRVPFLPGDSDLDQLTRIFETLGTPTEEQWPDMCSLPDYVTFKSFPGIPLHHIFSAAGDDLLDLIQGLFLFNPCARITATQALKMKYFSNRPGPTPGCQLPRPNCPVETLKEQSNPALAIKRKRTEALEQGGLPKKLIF
CDK7 CCNH MNAT1 (human), sequence (P51946 whole entry, looked up): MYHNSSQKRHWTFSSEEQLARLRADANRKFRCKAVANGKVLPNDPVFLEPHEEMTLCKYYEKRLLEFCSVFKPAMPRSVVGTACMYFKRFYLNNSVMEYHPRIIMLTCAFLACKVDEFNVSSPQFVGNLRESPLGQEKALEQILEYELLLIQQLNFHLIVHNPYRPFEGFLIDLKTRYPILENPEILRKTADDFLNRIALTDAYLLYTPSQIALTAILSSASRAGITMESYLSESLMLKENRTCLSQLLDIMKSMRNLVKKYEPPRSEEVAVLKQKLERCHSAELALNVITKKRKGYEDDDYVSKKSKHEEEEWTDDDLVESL
CDK7 CCNH MNAT1 (human), sequence (P51948 whole entry, looked up): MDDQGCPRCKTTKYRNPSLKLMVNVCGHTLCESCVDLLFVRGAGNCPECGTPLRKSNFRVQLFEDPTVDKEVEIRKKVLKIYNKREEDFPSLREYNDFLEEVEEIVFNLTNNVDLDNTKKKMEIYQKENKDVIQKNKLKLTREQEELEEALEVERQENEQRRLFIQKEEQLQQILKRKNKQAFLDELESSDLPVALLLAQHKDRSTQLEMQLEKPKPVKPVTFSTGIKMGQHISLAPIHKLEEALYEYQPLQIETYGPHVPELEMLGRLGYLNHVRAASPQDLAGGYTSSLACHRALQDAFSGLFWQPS

SMILES | residual activity
O=c1[nH]c2ccccc2n1C1CCN(Cc2ccc(-c3nc4cc5[nH]cnc5cc4nc3-c3ccccc3)cc2)CC1 | 99.1%

Same assay, conditions: compound 0.5 µM; ATP 10 µM

SMILES | residual activity
COc1cc2c(cc1OC)-c1[nH]nc(Nc3cccc(F)c3)c1C2 | 101%
Cn1cc(/C=C2\C(=O)Nc3ccc(S(N)(=O)=O)cc32)c2ccccc21 | 73.7%
COc1cccc(-c2cc(=O)c3ccccc3o2)c1N | 99.9%

Target: CSNK1G3 (human) (UniProt Q9Y6M4)
Assay: as above
Details: compound 0.5 µM; ATP 10 µM

SMILES | residual activity
O=c1[nH]c2ccccc2n1C1CCN(Cc2ccc(-c3nc4cc5[nH]cnc5cc4nc3-c3ccccc3)cc2)CC1 | 96.5%
COc1cc2c(cc1OC)-c1[nH]nc(Nc3cccc(F)c3)c1C2 | 95%
Cn1cc(/C=C2\C(=O)Nc3ccc(S(N)(=O)=O)cc32)c2ccccc21 | 109%
COc1cccc(-c2cc(=O)c3ccccc3o2)c1N | 97.7%

Target: EPHA5 (human) (UniProt P54756)
Assay: as above
Details: compound 0.5 µM; ATP 10 µM

EPHA5 (human), sequence (P54756 whole entry, looked up): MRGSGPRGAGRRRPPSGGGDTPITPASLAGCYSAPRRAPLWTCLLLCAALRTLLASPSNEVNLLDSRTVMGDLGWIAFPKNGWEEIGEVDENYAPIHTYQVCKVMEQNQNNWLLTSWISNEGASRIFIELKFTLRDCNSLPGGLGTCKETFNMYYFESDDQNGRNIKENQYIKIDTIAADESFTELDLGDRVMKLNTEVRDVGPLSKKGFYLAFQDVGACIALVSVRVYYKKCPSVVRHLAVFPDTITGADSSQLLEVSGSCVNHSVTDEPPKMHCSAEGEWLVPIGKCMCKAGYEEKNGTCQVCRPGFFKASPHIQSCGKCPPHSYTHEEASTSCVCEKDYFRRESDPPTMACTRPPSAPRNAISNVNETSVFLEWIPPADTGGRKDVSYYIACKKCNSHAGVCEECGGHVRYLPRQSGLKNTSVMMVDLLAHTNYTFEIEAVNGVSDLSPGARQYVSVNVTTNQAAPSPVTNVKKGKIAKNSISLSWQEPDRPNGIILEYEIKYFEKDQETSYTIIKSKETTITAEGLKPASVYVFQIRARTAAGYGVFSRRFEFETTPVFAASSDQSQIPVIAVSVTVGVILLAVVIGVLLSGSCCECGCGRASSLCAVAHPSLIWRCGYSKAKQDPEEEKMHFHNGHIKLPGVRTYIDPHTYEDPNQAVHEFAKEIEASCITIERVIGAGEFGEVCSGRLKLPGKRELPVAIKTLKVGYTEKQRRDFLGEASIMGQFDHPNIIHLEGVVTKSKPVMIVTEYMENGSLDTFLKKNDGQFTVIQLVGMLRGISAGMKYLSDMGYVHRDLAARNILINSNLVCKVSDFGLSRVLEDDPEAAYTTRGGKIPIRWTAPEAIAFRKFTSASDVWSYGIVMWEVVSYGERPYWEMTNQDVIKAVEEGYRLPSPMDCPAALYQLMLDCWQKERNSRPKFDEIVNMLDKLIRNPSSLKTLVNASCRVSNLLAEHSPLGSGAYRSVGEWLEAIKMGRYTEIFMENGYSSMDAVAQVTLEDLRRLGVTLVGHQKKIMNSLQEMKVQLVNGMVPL

SMILES | residual activity
O=c1[nH]c2ccccc2n1C1CCN(Cc2ccc(-c3nc4cc5[nH]cnc5cc4nc3-c3ccccc3)cc2)CC1 | 102%
COc1cc2c(cc1OC)-c1[nH]nc(Nc3cccc(F)c3)c1C2 | 93.4%
Cn1cc(/C=C2\C(=O)Nc3ccc(S(N)(=O)=O)cc32)c2ccccc21 | 69.3%
COc1cccc(-c2cc(=O)c3ccccc3o2)c1N | 97.9%

Target: PRKD3 (human) (UniProt O94806)
Assay: as above
Details: compound 0.5 µM; ATP 10 µM

SMILES | residual activity
O=c1[nH]c2ccccc2n1C1CCN(Cc2ccc(-c3nc4cc5[nH]cnc5cc4nc3-c3ccccc3)cc2)CC1 | 99.5%
COc1cc2c(cc1OC)-c1[nH]nc(Nc3cccc(F)c3)c1C2 | 93.1%
